From the supplement of paper PMC10307832

Legend:
Experiment in all cases: relative viability (nuclei count vs DMSO), 5 days (fraction); higher = more cells survive
[1] = compound: O=C(Nc1cc(C(F)(F)F)cc(C(F)(F)F)c1)c1cc(Cl)ccc1O [IMD-0354] + C[C@]1(O)C[C@@H](c2nc(-c3ccc4ccc(-c5ccccc5)nc4c3)c3c(N)nccn32)C1 [Linsitinib] (partner 1 µM)
In short: (§1)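 Relative viability was taken as the ratio of nuclei in treated wells to nuclei in vehicle wells. Lung cancer cell lines in 1536-well plates received compounds by pin tool one day after seeding, either one drug alone or a fixed anchor-drug dose plus five library-drug doses (not always all listed) in √10 steps. Nuclei were counted on 4× images after 5 days of treatment, and values are medians of duplicate plates.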

[2] = compound: Cc1cnc(CNC(=O)c2c(=O)c3ccc(N4CCCN(C)CC4)nc3n3c2sc2ccccc23)cn1 [CX-5461] + CC1(C)CCC(c2ccc(Cl)cc2)=C(CN2CCN(c3ccc(C(=O)NS(=O)(=O)c4ccc(N[C@H](CCN5CCOCC5)CSc5ccccc5)c(S(=O)(=O)C(F)(F)F)c4)cc3)CC2)C1 [Navitoclax] (partner 0.5 µM)
In short: as §1

[3] = compound: Cc1cnc(CNC(=O)c2c(=O)c3ccc(N4CCCN(C)CC4)nc3n3c2sc2ccccc23)cn1 [CX-5461] + CC(=O)c1c(C)c2cnc(Nc3ccc(N4CCNCC4)cn3)nc2n(C2CCCC2)c1=O [Palbociclib] (partner 0.5 µM)
In short: as §1

[4] = compound: O=C(Nc1cc(C(F)(F)F)cc(C(F)(F)F)c1)c1cc(Cl)ccc1O [IMD-0354] + C[C@@H](Oc1cc(-c2cnn(C3CCNCC3)c2)cnc1N)c1c(Cl)ccc(F)c1Cl [Crizotinib] (partner 1 µM)
In short: as §1

| Cell Line | relative viability ([1]; first compound 0.1265 µM) | relative viability ([1]; first compound 0.4 µM) | relative viability ([1]; first compound 1.265 µM) | relative viability ([1]; first compound 4 µM) | relative viability ([2]; first compound 0.01 µM) | relative viability ([2]; first compound 0.03162 µM) | relative viability ([2]; first compound 0.1 µM) | relative viability ([2]; first compound 1 µM) | relative viability ([3]; first compound 0.01 µM) | relative viability ([3]; first compound 0.03162 µM) | relative viability ([3]; first compound 0.1 µM) | relative viability ([3]; first compound 0.3162 µM) | relative viability ([3]; first compound 1 µM) | relative viability ([4]; first compound 0.1265 µM) | relative viability ([4]; first compound 0.4 µM) | relative viability ([4]; first compound 1.265 µM) | relative viability ([4]; first compound 4 µM) | relative viability ([1]; first compound 0.04 µM) | relative viability ([2]; first compound 0.3162 µM) | relative viability ([4]; first compound 0.04 µM) |
| --- | --- | --- | --- | --- | --- | --- | --- | --- | --- | --- | --- | --- | --- | --- | --- | --- | --- | --- | --- | --- |
| LCLC-97TM1 | 0.153 | 0.179 | 0.177 | 0.132 | 0.405 | 0.523 | 0.325 | 0.467 | 0.211 | 0.254 | 0.198 | 0.208 | 0.227 | 0.432 | 0.211 | 0.265 | 0.146 |  |  |  |
| LK-2 | 0.505 |  | 0.863 | 0.19 |  | 0.984 | 0.939 | 0.904 | 0.54 | 0.972 | 0.724 |  | 0.564 | 0.201 | 0.28 | 0.29 | 0.244 | 0.527 | 0.319 | 0.22 |
| LOU-NH91 | 0.989 | 0.652 | 0.317 | 0.251 | 0.7 | 0.694 | 0.735 | 0.575 | 0.516 | 0.557 | 0.513 | 0.439 | 0.478 | 0.732 | 0.538 | 0.345 | 0.287 | 0.945 | 0.472 | 0.754 |
| LU99A | 0.527 | 0.398 | 0.452 | 0.147 | 0.764 | 0.938 | 0.741 | 0.898 | 0.411 | 0.434 | 0.389 | 0.322 | 0.416 | 0.62 | 0.482 | 0.214 | 0.203 | 0.553 | 0.676 | 0.453 |
| LXF-289 | 0.932 | 0.768 | 0.459 | 0.108 | 0.94 | 0.985 | 0.995 | 0.957 | 0.596 | 0.592 | 0.629 |  | 0.592 | 0.803 | 0.575 | 0.229 | 0.069 | 1.04 | 0.875 | 0.834 |
| NCI-H23 | 0.646 | 0.425 | 0.318 | 0.19 | 0.958 | 0.859 | 0.986 | 0.726 | 0.48 | 0.584 | 0.499 | 0.576 | 0.43 | 0.522 | 0.376 | 0.378 | 0.264 | 0.643 | 0.839 | 0.719 |
| NCI-H322M | 0.909 | 0.793 | 1.09 | 0.319 | 1.34 | 1.31 | 1.12 | 1.17 | 0.471 | 0.457 | 0.503 | 0.429 | 0.434 | 0.972 | 0.811 | 0.851 | 0.257 | 0.973 |  | 1.06 |
| NCI-H441 | 0.659 | 0.31 | 0.234 | 0.22 | 0.514 | 0.821 | 0.57 | 0.583 | 0.233 | 0.243 | 0.205 | 0.203 | 0.194 | 0.713 | 0.514 | 0.363 | 0.202 | 0.485 | 0.703 | 0.573 |
| NCI-H460 | 0.709 | 0.278 | 0.0367 | 0.0126 | 1.04 | 1.02 | 0.273 | 0.0167 | 0.221 | 0.0725 | 0.0509 | 0.0722 | 0.0229 | 0.808 | 0.243 | 0.142 | 0.0357 | 1.2 | 1.09 | 0.892 |
| NCI-H520 | 0.816 | 0.469 | 0.187 | 0.179 | 1.09 | 0.891 | 1.05 | 0.793 | 0.219 | 0.212 | 0.25 | 0.247 | 0.176 | 0.672 | 0.44 | 0.459 | 0.239 | 1.16 | 1.05 | 0.959 |
| NCI-H647 | 1.1 | 0.515 | 0.276 | 0.158 | 1.26 | 1.27 | 1.19 | 0.7 | 0.413 | 0.356 | 0.353 | 0.414 | 0.167 | 1.2 | 0.505 | 0.168 | 0.185 | 1.36 | 0.709 | 1.37 |
| NCI-H727 | 0.257 | 0.281 | 0.206 | 0.233 | 0.493 | 0.365 | 0.464 | 0.31 | 0.601 | 0.601 | 0.717 | 0.65 | 0.637 | 0.827 | 0.484 | 0.547 | 0.385 | 0.161 | 0.354 | 0.688 |
| NCI-H838 | 0.969 | 0.505 | 0.47 | 0.324 | 1.22 | 1.24 | 1.21 | 0.897 | 0.231 | 0.23 | 0.224 | 0.212 | 0.253 | 0.776 | 0.424 | 0.561 | 0.279 | 1.18 | 1.06 | 0.912 |
| NCI-H1355 | 0.708 | 0.757 | 0.795 | 0.203 | 0.882 | 1.03 | 0.986 | 1 | 0.424 | 0.467 | 0.41 | 0.417 | 0.388 | 1.04 | 0.956 | 0.97 | 0.242 | 1.04 | 1.01 | 1.29 |
| NCI-H1437 | 1.01 | 0.515 | 0.114 | 0.249 | 1.09 | 1.1 |  | 0.928 | 0.278 | 0.328 | 0.346 | 0.308 | 0.279 | 0.905 | 0.548 | 0.238 | 0.207 | 1.2 | 1.03 | 1.02 |
| NCI-H1651 | 0.901 | 0.429 | 0.0622 | 0.0566 |  | 0.882 |  | 0.0867 | 0.455 | 0.517 | 0.536 | 0.513 | 0.526 | 0.87 | 0.575 | 0.609 | 0.128 | 1.03 | 0.694 | 0.765 |
